In patent US12227495B2, “Herbicidal compounds” (SYNGENTA CROP PROTECTION AG, priority 2018, dated 2025):

Columns and labels:
Type in all cases: in vivo
Lolium perenne (LOLPE) [1] = experiment: Post-emergence herbicide test, glasshouse, percentage damage; details: 1000 g/ha, evaluated after 13 days
Summary of the method: (§1)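 Damage was rated 13 days after spraying on a five-point scale (1=0-20% to 5=81-100%). The compound was applied at 500 g/ha unless stated otherwise, in acetone/water 50:50 plus 0.5% Tween 20, on day 1 (pre-emergence) or day 8 (post-emergence) after sowing. Plants were kept under glasshouse conditions of 24/16° C day/night and 14 h light.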

[2] = system: Amaranthus retoflexus (AMARE); experiment: as above; details: 1000 g/ha, evaluated after 13 days
Summary of the method: as §1

[3] = system: Echinochloa crus-galli (ECHCG); experiment: as above; details: 1000 g/ha, evaluated after 13 days
Summary of the method: as §1

[4] = system: Ipomoea hederacea (IPOHE); experiment: as above; details: 1000 g/ha, evaluated after 13 days
Summary of the method: as §1

Setaria faberi (SETFA) [5] = experiment: as above; details: 1000 g/ha, evaluated after 13 days
Summary of the method: as §1

Solanum nigrum (SOLNI) [6] = experiment: as above; details: 1000 g/ha, evaluated after 13 days
Summary of the method: as §1

Lolium perenne (LOLPE) [7] = experiment: Pre-emergence herbicide test, glasshouse, percentage damage; details: rate 1000 g/ha, evaluated after 13 days
Summary of the method: as §1

[8] = system: Amaranthus retoflexus (AMARE); experiment: as above; details: rate 1000 g/ha, evaluated after 13 days
Summary of the method: as §1

[9] = system: Echinochloa crus-galli (ECHCG); experiment: as above; details: rate 1000 g/ha, evaluated after 13 days
Summary of the method: as §1

[10] = system: Ipomoea hederacea (IPOHE); experiment: as above; details: rate 1000 g/ha, evaluated after 13 days
Summary of the method: as §1

Setaria faberi (SETFA) [11] = experiment: as above; details: rate 1000 g/ha, evaluated after 13 days
Summary of the method: as §1

Solanum nigrum (SOLNI) [12] = experiment: as above; details: rate 1000 g/ha, evaluated after 13 days
Summary of the method: as §1

SMILES | percentage damage caused to the plant, LOLPE (Lolium perenne (LOLPE) [1]) | percentage damage caused to the plant, AMARE [2] | percentage damage caused to the plant, ECHCG [3] | percentage damage caused to the plant, IPOHE [4] | percentage damage caused to the plant, SETFA (Setaria faberi (SETFA) [5]) | percentage damage caused to the plant, SOLNI (Solanum nigrum (SOLNI) [6]) | Pre-emergence Test LOLPE percentage damage (five point scale) (Lolium perenne (LOLPE) [7]) | Pre-emergence Test AMARE percentage damage (five point scale) [8] | Pre-emergence Test ECHCG percentage damage (five point scale) [9] | Pre-emergence Test IPOHE percentage damage (five point scale) [10] | Pre-emergence Test SETFA percentage damage (five point scale) (Setaria faberi (SETFA) [11]) | Pre-emergence Test SOLNI percentage damage (five point scale) (Solanum nigrum (SOLNI) [12])
Fc1cc(Cl)cnc1Oc1cccc(F)c1-c1cc(C(F)F)on1 [Compound A30] | 5 (5=81-100%) | 5 (5=81-100%) | 5 (5=81-100%) | 5 (5=81-100%) | 5 (5=81-100%) | 5 (5=81-100%) | 5 (5=81-100%) | 5 (5=81-100%) | 5 (5=81-100%) | 5 (5=81-100%) | 5 (5=81-100%) | 5 (5=81-100%)
Fc1cc(Cl)cnc1Oc1cccc(F)c1-c1cc(C(F)(F)F)no1 [Compound A31] | 5 (5=81-100%) | 5 (5=81-100%) | 5 (5=81-100%) | 5 (5=81-100%) | 5 (5=81-100%) | 5 (5=81-100%) | 5 (5=81-100%) | 5 (5=81-100%) | 5 (5=81-100%) | 5 (5=81-100%) | 5 (5=81-100%) | 5 (5=81-100%)
N#Cc1cccc(Oc2ccc(Cl)cn2)c1-n1cc(C(F)(F)F)cn1 [Compound A32] | 5 (5=81-100%) | 5 (5=81-100%) | 5 (5=81-100%) | 5 (5=81-100%) | 5 (5=81-100%) | 5 (5=81-100%) | 4 (4=61-80%) | 5 (5=81-100%) | 5 (5=81-100%) | 5 (5=81-100%) | 5 (5=81-100%) | 5 (5=81-100%)
N#Cc1cccc(Oc2ncc(Cl)cc2F)c1-n1cc(C(F)(F)F)cn1 [Compound A33, 3-[(5-chloro-3-fluoro-2-pyridyl)oxy]-2-[4-(trifluoromethyl)pyrazol-1-yl]benzonitrile] | 5 (5=81-100%) | 5 (5=81-100%) | 5 (5=81-100%) | 5 (5=81-100%) | 5 (5=81-100%) | 5 (5=81-100%) | 4 (4=61-80%) | 5 (5=81-100%) | 5 (5=81-100%) | 2 (2=21-40%) | 5 (5=81-100%) | 5 (5=81-100%)
N#Cc1cccc(Oc2ncc(F)cc2F)c1-n1cc(C(F)(F)F)cn1 [Compound A34] | 5 (5=81-100%) | 5 (5=81-100%) | 5 (5=81-100%) | 5 (5=81-100%) | 5 (5=81-100%) | 5 (5=81-100%) | 5 (5=81-100%) | 5 (5=81-100%) | 5 (5=81-100%) | 5 (5=81-100%) | 5 (5=81-100%) | 5 (5=81-100%)
Fc1cc(Cl)cnc1Oc1cccc(F)c1-c1ncc(C(F)F)o1 [Compound A35] | 1 (1=0-20%) | 5 (5=81-100%) | 1 (1=0-20%) | 2 (2=21-40%) | 4 (4=61-80%) | 5 (5=81-100%) | 1 (1=0-20%) | 3 (3=41-60%) | 5 (5=81-100%) | 1 (1=0-20%) | 5 (5=81-100%) | 5 (5=81-100%)
COc1cccc(Oc2ncc(Cl)cc2F)c1-n1cc(C(F)(F)F)cn1 [Compound A36, 5-chloro-3-fluoro-2-[3-methoxy-2-[4-(trifluoromethyl)pyrazol-1-yl]phenoxy]pyridine] | 4 (4=61-80%) | 5 (5=81-100%) | 4 (4=61-80%) | 2 (2=21-40%) | 5 (5=81-100%) | 5 (5=81-100%) | 3 (3=41-60%) | 5 (5=81-100%) | 5 (5=81-100%) | 5 (5=81-100%) | 5 (5=81-100%) | 5 (5=81-100%)
N#Cc1cc(Cl)cnc1Oc1cccc(F)c1-c1cc(C(F)F)no1 [Compound A37] | 4 (4=61-80%) | 5 (5=81-100%) | 4 (4=61-80%) | 5 (5=81-100%) | 5 (5=81-100%) | 5 (5=81-100%) | 5 (5=81-100%) | 5 (5=81-100%) | 5 (5=81-100%) | 5 (5=81-100%) | 5 (5=81-100%) | 5 (5=81-100%)
O=[N+]([O-])c1cc(Cl)cnc1Oc1cccc(F)c1-c1cc(C(F)F)no1 [Compound A38] | 1 (1=0-20%) | 5 (5=81-100%) | 1 (1=0-20%) | 1 (1=0-20%) | 1 (1=0-20%) | 5 (5=81-100%) | 1 (1=0-20%) | 4 (4=61-80%) | 1 (1=0-20%) | 1 (1=0-20%) | 1 (1=0-20%) | 1 (1=0-20%)
CS(=O)(=O)c1cnc(Oc2cccc(F)c2-c2cc(C(F)F)no2)c(F)c1 [Compound A39] | 1 (1=0-20%) | 3 (3=41-60%) | 1 (1=0-20%) | 1 (1=0-20%) | 1 (1=0-20%) | 3 (3=41-60%) | 1 (1=0-20%) | 5 (5=81-100%) | 1 (1=0-20%) | 1 (1=0-20%) | 1 (1=0-20%) | 1 (1=0-20%)
CS(=O)(=O)c1ccc(Oc2cccc(F)c2-c2cc(C(F)F)no2)nc1 [Compound A40] | 1 (1=0-20%) | 3 (3=41-60%) | 1 (1=0-20%) | 1 (1=0-20%) | 1 (1=0-20%) | 4 (4=61-80%) | 1 (1=0-20%) | 2 (2=21-40%) | 1 (1=0-20%) | 1 (1=0-20%) | 1 (1=0-20%) | 1 (1=0-20%)
